Source: PubChem BioAssay (NCI)
Values joined by “and” are separate entries in the source; they are usually repeats but may differ in a detail not shown here. Equal entries are not always repeated.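 Tested at 5 concentrations; 48 h exposure; 96-well plates; endpoints linearly interpolated, else capped at highest concentration. GI50 marks 50% less growth. The concentration for full growth arrest is given as TGI.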

How the values were obtained:
Experiment in all cases: NCI anticancer screen, dose series, 48 h
[1] = tested on: HL-60(TB) leukemia
[2] = tested on: MDA-N
[3] = tested on: SK-MEL-28 melanoma
[4] = tested on: MDA-MB-231 breast
[5] = tested on: UO-31 renal
[6] = tested on: MDA-MB-435
[7] = tested on: RPMI-8226 leukemia
[8] = tested on: A498 renal
[9] = tested on: SNB-75 CNS
[10] = tested on: MCF7 breast
[11] = tested on: OVCAR-5 ovarian
[12] = tested on: HCT-15 colon
[13] = tested on: K-562 leukemia
[14] = tested on: UACC-257 melanoma
[15] = tested on: 786-0 renal
[16] = tested on: SK-MEL-2 melanoma
[17] = tested on: SF-539 CNS
[18] = tested on: OVCAR-4 ovarian
[19] = tested on: SNB-19 CNS
[20] = tested on: OVCAR-3 ovarian
[21] = tested on: SK-MEL-5 melanoma
[22] = tested on: SF-268 CNS
[23] = tested on: SN12C renal
[24] = tested on: OVCAR-8 ovarian
[25] = tested on: A549 NSCLC
[26] = tested on: NCI-H226 lung
[27] = tested on: KM12 colon
[28] = tested on: NCI-H23 lung
[29] = tested on: HS 578T breast
[30] = tested on: PC-3 prostate
[31] = tested on: NCI-H522 lung
[32] = tested on: MOLT-4 leukemia
[33] = tested on: SW-620 colon
[34] = tested on: HCC-2998 colon
[35] = tested on: IGROV1 ovarian
[36] = tested on: MALME-3M melanoma
[37] = tested on: CCRF-CEM leukemia
[38] = tested on: TK-10 renal
[39] = tested on: UACC-62 melanoma
[40] = tested on: M14 melanoma
[41] = tested on: EKVX NSCLC
[42] = tested on: NCI/ADR-RES ovarian
[43] = tested on: SF-295 CNS
[44] = tested on: HT29 colon
[45] = tested on: U251 CNS
[46] = tested on: HCT-116 colon
[47] = tested on: COLO 205 colon
[48] = tested on: SK-OV-3 ovarian
[49] = tested on: LOX IMVI melanoma
[50] = tested on: T-47D breast
[51] = tested on: NCI-H460 lung
[52] = tested on: DU-145 prostate
[53] = tested on: BT-549 breast
[54] = tested on: ACHN renal
[55] = tested on: HOP-92 NSCLC
[56] = tested on: CAKI-1 renal

SMILES: O=C1C=C2C=CC3CC2(O1)C1CCCCN31 (configuration not stated)
- TGI [1]: 79.2 µM
- GI50 [2]: 16.8 µM and 18.8 µM and 36 µM
- TGI [2]: > 100 µM
- GI50 [3]: 17.3 µM and 13.4 µM and 89.3 µM
- TGI [3]: 39 µM and 36.4 µM and > 100 µM
- GI50 [4]: 19 µM and 21.6 µM and 39.7 µM
- TGI [4]: > 100 µM and 67.9 µM
- GI50 [5]: 14.5 µM and 13.8 µM and 38.3 µM
- TGI [5]: > 100 µM
- GI50 [6]: 10.1 µM and 8.06 µM and 22 µM
- TGI [6]: 41.6 µM and 39.3 µM and 66.3 µM
- GI50 [7]: 7.45 µM and 15.1 µM and 29.3 µM
- TGI [7]: 58.9 µM and 45.7 µM and > 100 µM
- GI50 [8]: 10.3 µM and 28.4 µM and 48.9 µM
- TGI [8]: 43.9 µM and 91.5 µM and > 100 µM
- GI50 [9]: 24.2 µM and 14.6 µM and 31.7 µM
- TGI [9]: > 100 µM and 62.3 µM and 95.8 µM
- GI50 [10]: 15.3 µM and 16.8 µM and 32.6 µM
- TGI [10]: 70.4 µM and 39.5 µM and > 100 µM
- GI50 [11]: 34.7 µM and 25.9 µM and > 100 µM
- TGI [11]: > 100 µM
- GI50 [12]: 11.4 µM and 11.8 µM and 31 µM
- TGI [12]: 46.4 µM and 29.4 µM and > 100 µM
- TGI [13]: > 100 µM and 41.8 µM
- GI50 [14]: 25 µM and 13.8 µM and 86.8 µM
- TGI [14]: > 100 µM and 66.7 µM
- GI50 [15]: 16.3 µM and 15.5 µM and 45.6 µM
- TGI [15]: 41.3 µM and 49.8 µM and > 100 µM
- TGI [16]: > 100 µM and 44.5 µM and 94.4 µM
- GI50 [17]: 12.7 µM and 27 µM and 23.2 µM
- TGI [17]: 35.8 µM and > 100 µM and 75.4 µM
- GI50 [18]: 25.8 µM and 22.5 µM and 65 µM
- TGI [18]: > 100 µM and 92.1 µM
- TGI [19]: > 100 µM and 55.5 µM
- GI50 [20]: 18.6 µM and 17.3 µM and 40.6 µM
- TGI [20]: 69.6 µM and 48.1 µM and > 100 µM
- GI50 [21]: 15.9 µM and 19.9 µM and 34.9 µM
- TGI [21]: 33.5 µM and 54.5 µM and > 100 µM
- GI50 [22]: 25.4 µM and 12.7 µM and 41.2 µM
- TGI [22]: > 100 µM
- GI50 [23]: 11.8 µM and 14.8 µM and 25 µM
- TGI [23]: 31.4 µM and 33.7 µM and 74.4 µM
- TGI [24]: 72.6 µM and 40.2 µM and 93.8 µM
- GI50 [25]: 31.8 µM and 22.9 µM and 64.4 µM
- TGI [25]: > 100 µM and 63.4 µM
- GI50 [26]: 19.7 µM and 6 µM and 51.7 µM
- TGI [26]: > 100 µM and 45.3 µM
- TGI [27]: 70.7 µM and 28.5 µM and 57.6 µM
- GI50 [28]: 19.9 µM and 15 µM and 31.7 µM
- TGI [28]: 56.7 µM and 43.5 µM and > 100 µM
- GI50 [29]: 67.8 µM and 29.3 µM and 63.3 µM
- TGI [29]: > 100 µM
- TGI [30]: > 100 µM and 73.4 µM
- GI50 [31]: 10.1 µM and 11.1 µM and 32.8 µM
- TGI [31]: 28.1 µM and 32.4 µM and > 100 µM
- TGI [32]: 72.6 µM and 56.1 µM and > 100 µM
- GI50 [33]: 16.9 µM and 13.7 µM and 38 µM
- TGI [33]: 42.4 µM and 39 µM and > 100 µM
- TGI [34]: 40.9 µM and 42.4 µM and 86.4 µM
- TGI [35]: 95 µM and 30.8 µM and > 100 µM
- TGI [36]: 44.4 µM
- GI50 [37]: 15.3 µM and 11 µM and 28.4 µM
- TGI [37]: 96.6 µM and 41.3 µM and 83.3 µM
- GI50 [38]: 17.3 µM and 13.6 µM and 31 µM
- TGI [38]: 79 µM and 41.4 µM and > 100 µM
- GI50 [39]: 15.8 µM and 13.9 µM and 57.1 µM
- TGI [39]: 42.3 µM and 30.1 µM and > 100 µM
- GI50 [40]: 28.1 µM and 24 µM and 54.4 µM
- TGI [40]: > 100 µM
- GI50 [41]: 14.1 µM and 11.6 µM and 38.6 µM
- TGI [41]: 57.4 µM and 35.5 µM and > 100 µM
- GI50 [42]: 21.3 µM and 16.8 µM and 35.4 µM
- TGI [42]: 61.2 µM and 43.4 µM and > 100 µM
- TGI [43]: > 100 µM and 76.1 µM
- GI50 [44]: 16.1 µM and 12.9 µM and 34.7 µM
- TGI [44]: 46.2 µM and 27.8 µM and > 100 µM
- GI50 [45]: 20 µM and 27.7 µM and 60.9 µM
- TGI [45]: 62 µM and 88.8 µM and > 100 µM
- GI50 [46]: 14.2 µM and 12.5 µM and 36.5 µM
- TGI [46]: 30.3 µM and 26.6 µM and > 100 µM
- GI50 [47]: 21.6 µM and 15.1 µM and 58.7 µM
- TGI [47]: 73.5 µM and 29.3 µM and > 100 µM
- TGI [48]: > 100 µM and 58 µM and 90.6 µM
- GI50 [49]: 17.7 µM and 18 µM and 53.3 µM
- TGI [49]: 44.4 µM and 42.8 µM and > 100 µM
- GI50 [50]: 22.3 µM and 14.1 µM and 53.4 µM
- TGI [50]: 71.6 µM and 36.2 µM and > 100 µM
- GI50 [51]: 22.1 µM and 15.1 µM and 31.7 µM
- TGI [51]: 96.3 µM and 67.1 µM and > 100 µM
- TGI [52]: 50.1 µM and 36.1 µM and > 100 µM
- GI50 [53]: 13.8 µM and 10.8 µM and 37 µM
- TGI [53]: 51.3 µM and 30.3 µM and > 100 µM
- GI50 [54]: 23.9 µM and 15.9 µM and 50.2 µM
- TGI [54]: > 100 µM and 84.3 µM
- TGI [55]: 65.8 µM and 48.3 µM and 66 µM
- GI50 [56]: 17.7 µM and 22.3 µM and 43.3 µM
- TGI [56]: 78.8 µM and 79.5 µM and > 100 µM
